Experimental data: patent publication US20230174485A1, “LIPOXYGENASE INHIBITORS” (SRI International, priority 2020, published 2023)
Values joined by “and” are separate entries in the source; they are usually repeats but may differ in a detail not shown here. Equal entries are not always repeated. Structures can show the parent of a compound that is named as a salt. Where two headings read alike, the source gives them in different places.

How the values were obtained:
Format in all cases: biochemical
recombinant 5-LOX = molecular target: T1, recombinant 5-LOX (Homo sapiens, UniProt P09917); test: 5-LOX fluorescent assay; settings: several values in one cell = repeat determinations; read-out: IC50 (μM) values for in vitro lipoxygenase inhibition, 5-LOX
T1 sequence (P09917 1-674): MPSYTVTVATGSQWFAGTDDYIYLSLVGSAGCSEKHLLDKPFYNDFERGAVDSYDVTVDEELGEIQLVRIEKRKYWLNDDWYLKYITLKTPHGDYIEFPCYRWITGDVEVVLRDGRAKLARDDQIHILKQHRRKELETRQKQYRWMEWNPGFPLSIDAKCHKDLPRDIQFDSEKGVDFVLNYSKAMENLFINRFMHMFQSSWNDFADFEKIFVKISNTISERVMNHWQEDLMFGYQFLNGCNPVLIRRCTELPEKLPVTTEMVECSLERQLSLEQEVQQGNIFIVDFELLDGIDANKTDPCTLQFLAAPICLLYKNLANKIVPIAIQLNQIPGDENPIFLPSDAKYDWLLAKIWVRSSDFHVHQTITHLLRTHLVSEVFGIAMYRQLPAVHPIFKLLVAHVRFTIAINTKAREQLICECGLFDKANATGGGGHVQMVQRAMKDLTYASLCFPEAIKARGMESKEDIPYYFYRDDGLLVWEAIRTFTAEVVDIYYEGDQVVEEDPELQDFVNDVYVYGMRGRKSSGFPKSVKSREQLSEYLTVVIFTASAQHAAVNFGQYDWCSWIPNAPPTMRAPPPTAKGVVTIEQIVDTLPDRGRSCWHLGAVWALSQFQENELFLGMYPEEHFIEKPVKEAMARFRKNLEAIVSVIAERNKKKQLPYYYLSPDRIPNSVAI
Description: 5-LOX FI assay Fluorescent Assay
The enzyme assay (100 μL) contained 50 mM Tris, pH 7.5, 0.1 mM EDTA, 0.3 mM CaCl2, 20 μM AA, 100 μM ATP, 1 μM DHR123, and recombinant 5-LOX cell lysate (0.5 μL/100 μL). Inhibitors (dissolved in DMSO) were plated at 1 μL into 96-well assay microplates followed by a 40 μL addition of a solution containing 5-LOX enzyme. Enzyme was pre-incubated with compounds for 15 mins. The assay was initiated by the addition of a 40 μL substrate solution containing AA and ATP, and 20 μL addition of a solution containing DHR123. Enzymatic reaction proceeded for 30 min with kinetic reading at 500 nm excitation & 536 nm emission in SpectraMax Paradigm (MolecularDevice). Percent inhibition was calculated for each compound dose for IC50 curve fitting using 4 Parameter Logistic Model or Sigmoidal Dose-Response Model.

[1] = molecular target: T2, recombinant 15-LOX enzyme (Homo sapiens, UniProt P16050); test: 15-LOX fluorescent assay; settings: several values in one cell = repeat determinations
T2 sequence (P16050 1-662): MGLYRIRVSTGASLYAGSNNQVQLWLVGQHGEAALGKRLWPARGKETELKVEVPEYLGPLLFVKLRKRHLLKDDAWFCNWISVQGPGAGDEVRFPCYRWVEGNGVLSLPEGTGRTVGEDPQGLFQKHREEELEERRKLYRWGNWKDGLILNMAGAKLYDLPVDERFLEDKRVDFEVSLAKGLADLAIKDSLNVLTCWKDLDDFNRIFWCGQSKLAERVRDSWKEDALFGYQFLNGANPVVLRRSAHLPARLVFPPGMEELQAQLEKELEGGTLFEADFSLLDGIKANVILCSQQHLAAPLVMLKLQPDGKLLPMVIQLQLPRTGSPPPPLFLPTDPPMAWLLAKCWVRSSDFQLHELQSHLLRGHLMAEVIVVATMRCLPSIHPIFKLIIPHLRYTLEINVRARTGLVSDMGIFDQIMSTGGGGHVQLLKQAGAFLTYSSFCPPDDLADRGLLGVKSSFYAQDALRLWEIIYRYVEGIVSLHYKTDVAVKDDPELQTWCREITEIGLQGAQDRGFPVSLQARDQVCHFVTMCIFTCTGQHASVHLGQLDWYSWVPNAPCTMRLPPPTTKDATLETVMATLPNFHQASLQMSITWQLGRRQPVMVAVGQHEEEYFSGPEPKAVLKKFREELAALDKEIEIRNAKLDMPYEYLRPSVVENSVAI
Description: (§1) 12-LOX/15-LOX Fluorescent Assay
(§2) The enzyme assay (100 ul) contained 50 mM Tris, pH 7.5, 0.05% Tween-20, 20 μM AA/LA, 1 μM DHR123, and 100 nM recombinant 12-LOX enzyme/50 nM recombinant 15-LOX enzyme. Inhibitors (dissolved in DMSO) were plated at 1 μL into 96-well assay microplates followed by a 40 μL addition of a solution containing 12-LOX/15-LOX enzyme. Enzyme was pre-incubated with compounds for 15 mins. The assay was initiated by the addition of a 40 μL substrate solution containing AA/LA, and 20 μL addition of a solution containing DHR123. Enzymatic reaction proceeded for 30 min with kinetic reading at 500 nm excitation & 536 nm emission in SpectraMax Paradigm (MolecularDevice). Percent inhibition was calculated for each compound dose for IC50 curve fitting using 4 Parameter Logistic Model or Sigmoidal Dose-Response Model.

[2] = molecular target: T3, recombinant 12-LOX enzyme (Homo sapiens, UniProt P18054); test: 12-LOX fluorescent assay; settings: several values in one cell = repeat determinations
T3 sequence (P18054 1-663): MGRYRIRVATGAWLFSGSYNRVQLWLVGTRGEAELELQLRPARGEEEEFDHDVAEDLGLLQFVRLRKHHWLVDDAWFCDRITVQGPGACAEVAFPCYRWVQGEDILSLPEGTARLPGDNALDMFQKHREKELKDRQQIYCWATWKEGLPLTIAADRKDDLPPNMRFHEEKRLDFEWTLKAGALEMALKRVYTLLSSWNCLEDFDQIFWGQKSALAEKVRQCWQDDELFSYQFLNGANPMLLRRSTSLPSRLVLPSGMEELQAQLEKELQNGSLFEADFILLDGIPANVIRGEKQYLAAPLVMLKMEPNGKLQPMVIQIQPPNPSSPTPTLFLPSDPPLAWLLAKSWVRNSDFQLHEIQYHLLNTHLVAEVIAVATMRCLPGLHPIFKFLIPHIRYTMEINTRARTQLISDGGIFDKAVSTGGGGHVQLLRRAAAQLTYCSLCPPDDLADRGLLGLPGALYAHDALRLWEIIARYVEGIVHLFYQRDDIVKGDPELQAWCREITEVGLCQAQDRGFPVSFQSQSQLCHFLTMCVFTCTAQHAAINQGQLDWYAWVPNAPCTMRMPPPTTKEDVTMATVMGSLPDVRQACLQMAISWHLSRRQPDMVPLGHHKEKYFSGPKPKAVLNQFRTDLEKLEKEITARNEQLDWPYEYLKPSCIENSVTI
Description: as §1, §2

[3] = IC50 (μM) values for in vitro lipoxygenase inhibition, 15-LOX
[4] = read-out: IC50 (μM) values for in vitro lipoxygenase inhibition, 12-LOX
[5] = read-out: IC50 (μM) values for in vitro lipoxygenase inhibition, 15-LOX

For `CN(C)CCOc1c(NCc2ccccc2)ccc2c1[nH]c1ncccc12` [SS20308-0047-01, N-benzyl-8-(2-(dimethylamino)ethoxy)-9H-pyrido[2,3-b]indol-7-amine], the IC50 (recombinant 5-LOX) was 0.36 µM and 0.82 µM, the IC50 [1, 3] was 1.13 µM and 1.93 µM and the IC50 [2, 4] was 0.36 µM and 0.49 µM.
With `CN(C)CCOc1cc(Oc2ccccc2)cc2c1[nH]c1ccc(F)cc12` [SS20308-0054-01] the IC50 (recombinant 5-LOX) was 6.83 µM, the IC50 [1, 5] was 1.82 µM and the IC50 [2, 4] was 7.6 µM.
With `c1ccc2c(c1)[nH]c1c(OCCn3cncn3)c3c(cc12)[nH]c1ccccc13` [SS20308-0059-01, 6-(2-(1H-1,2,4-triazol-1-yl)ethoxy)-5,11-dihydroindolo[3,2-b]carbazole] the IC50 (recombinant 5-LOX) was 0.04 µM and 0.03 µM, the IC50 [1, 3] was 0.03 µM and 0.02 µM and the IC50 ([2]; IC50 (μM) values for in vitro lipoxygenase inhibition, 12-LOX) was 0.03 µM and 0.02 µM.
For `c1ccc(N(CCCn2cncn2)c2ccc3c(c2)[nH]c2ccccc23)cc1` [SS20308-0060-01, N-(3-(1H-1,2,4-triazol-1-yl)propyl)-N-phenyl-9H-carbazol-2-amine], the IC50 (recombinant 5-LOX) was 0.62 µM, the IC50 [1, 5] was 2.19 µM and the IC50 [2, 4] was 0.99 µM.
With `c1ccc(-c2cc3c(cc2NCCn2cncn2)[nH]c2ccccc23)cc1` [SS20308-0061-01, N-(2-(1H-1,2,4-triazol-1-yl)ethyl)-3-phenyl-9H-carbazol-2-amine] the IC50 (recombinant 5-LOX) was 0.36 µM and 0.79 µM, the IC50 [1, 3] was 0.94 µM and 1.33 µM and the IC50 [2, 4] was 0.19 µM and 0.29 µM.
For `c1ccc2c(c1)[nH]c1cc3c(ccn3CCn3cncn3)cc12` [SS20308-0062-01, 1-(2-(1H-1,2,4-triazol-1-yl)ethyl)-1,9-dihydropyrrolo[2,3-b]carbazole], the IC50 (recombinant 5-LOX) was 0.53 µM and 0.42 µM, the IC50 [1, 5] was 0.94 µM and 1.68 µM and the IC50 [2, 4] was 0.19 µM and 0.24 µM.
`CN(C)CCOc1c2c(cc3[nH]c4ccccc4c13)[nH]c1ccccc12` [SS20308-0063-01, 2-(5,7-dihydroindolo[2,3-b]carbazol-12-yloxy)-N,N-dimethylethanamine] was tested, and the IC50 (recombinant 5-LOX) was 0.53 µM and 0.69 µM, the IC50 [1, 3] was 0.29 µM and 0.9 µM and the IC50 [2, 4] was 0.46 µM and 0.56 µM.
With `CN(C)CCOc1c2[nH]c3ccccc3c2cc2[nH]c3ccccc3c12` [SS20308-0065-01, 2-(5,11-dihydroindolo[3,2-b]carbazol-6-yloxy)-N,N-dimethylethanamine] the IC50 (recombinant 5-LOX) was 0.01 µM and 0.04 µM, the IC50 [1, 5] was 0.03 µM and the IC50 [2, 4] was 0.02 µM and 0.06 µM.
For `CN(C)CCCc1c(O)ccc2c1[nH]c1ccc(F)cc12` [SS20308-0068-01, 1-(3-(dimethylamino)propyl)-6-fluoro-9H-carbazol-2-ol], the IC50 (recombinant 5-LOX) was 5.63 µM, the IC50 [1, 3] was 1.76 µM and the IC50 [2, 4] was 0.77 µM.
Molecule `CN(C)CCOc1c(N)cc(Cl)c2c1[nH]c1ccc(F)cc12` [SS20308-0069-01, 4-chloro-1-(2-(dimethylamino)ethoxy)-6-fluoro-9H-carbazol-2-amine] has an IC50 (recombinant 5-LOX) of 14.8 µM, an IC50 [1, 5] of 8.34 µM and an IC50 [2, 4] of 7.93 µM.
For `CN(C)CCOc1cc2c3ncccc3[nH]c2c2c1[nH]c1cccnc12` [SS20308-0070-01], the IC50 (recombinant 5-LOX) was 9.17 µM, the IC50 [1, 5] was 4.53 µM and the IC50 [2, 4] was 6.32 µM.
Molecule `CN(C)CCOc1c(-c2ccccc2N)ccc2c1[nH]c1ccccc12` [SS20308-0073-01, 2-(1-(2-(dimethylamino)ethoxy)-9H-carbazol-2-yl)aniline dihydrochloride] has an IC50 (recombinant 5-LOX) of 14.4 µM, an IC50 [1, 3] of 26.1 µM and an IC50 [2, 4] of 49.2 µM.
`CN(C)CCOc1cc2c(cc1-c1ccccc1[N+](=O)[O-])[nH]c1ccccc12` [SS20308-0076-01, N,N-dimethyl-2-(2-(2-nitrophenyl)-9H-carbazol-3-yloxy)ethanamine] showed an IC50 (recombinant 5-LOX) of 4.54 µM, an IC50 [1, 5] of 5.7 µM and an IC50 [2, 4] of 3.59 µM.
Molecule `CN(C)CCOc1c(-c2ccccc2[N+](=O)[O-])ccc2c1[nH]c1ccccc12` [SS20308-0077-01, N,N-dimethyl-2-(2-(2-nitrophenyl)-9H-carbazol-1-yloxy)ethanamine] has an IC50 (recombinant 5-LOX) of 2.66 µM, an IC50 [1, 5] of 2.15 µM and an IC50 [2, 4] of 2.32 µM.
Work on `Fc1ccc2[nH]c3c(OCCn4cncn4)cc(Oc4ccccc4)cc3c2c1` [SS20308-0084-01, 1-(2-(1H-1,2,4-triazol-1-yl)ethoxy)-6-fluoro-3-phenoxy-9H-carbazole] yielded an IC50 (recombinant 5-LOX) of 6.79 µM, an IC50 [1, 3] of 3.36 µM and an IC50 [2, 4] of 5.42 µM.
`c1ccc(-c2c(NCCn3cncn3)ccc3c2[nH]c2ccccc23)cc1` [SS20308-0085-01, N-(2-(1H-1,2,4-triazol-1-yl)ethyl)-1-phenyl-9H-carbazol-2-amine] was tested, and the IC50 (recombinant 5-LOX) was 0.57 µM and 1.6 µM, the IC50 [1, 3] was 1.19 µM and 2.23 µM and the IC50 [2, 4] was 0.32 µM and 0.92 µM.
In the case of `CN(C)CCOc1c(CNc2ccccc2)ccc2c1[nH]c1ccccc12` [SS20308-0086-01, N-((1-(2-(dimethylamino)ethoxy)-9H-carbazol-2-yl)methyl)aniline], the IC50 (recombinant 5-LOX) is reported as 0.62 µM, the IC50 [1, 5] is reported as 0.42 µM and the IC50 [2, 4] is reported as 0.87 µM.
`CN(C)CCCOc1cccc2c1-c1[nH]c3ccccc3c1CS2` [SS20308-0090-01, 3-(6,11-dihydrothiochromeno[4,3-b]indol-1-yloxy)-N,N-dimethylpropan-1-amine] gave an IC50 (recombinant 5-LOX) of 0.47 µM, an IC50 [1, 5] of 0.69 µM and an IC50 [2, 4] of 0.43 µM.
Work on `CN(C)CCOc1ccc(Cl)c2c1-c1[nH]c3ccc(F)cc3c1CS2` [SS20308-0093-01, 2-(4-chloro-8-fluoro-6,11-dihydrothiochromeno[4,3-b]indol-1-yloxy)-N,N-dimethylethanamine] yielded an IC50 (recombinant 5-LOX) of 1.46 µM, an IC50 [1, 5] of 2.37 µM and an IC50 [2, 4] of 1.69 µM.
For `Cc1c2[nH]c3ccccc3c2c(CCCN(C)C)c2[nH]c3ccccc3c12` [SS20308-0100-01, N,N-dimethyl-3-(12-methyl-5,11-dihydroindolo[3,2-b]carbazol-6-yl)propan-1-amine], the IC50 (recombinant 5-LOX) was over 100 µM, the IC50 [1, 5] was over 100 µM and the IC50 [2, 4] was over 100 µM.
